Columns and labels:
human GPR4 [1] = target: T1, human GPR4 (Homo sapiens (Human), UniProt P46093); test: Human GPR4 binding assay ([3H]4 radioligand, membranes of 300.19 cells expressing human GPR4)
Method: a) Human GPR4 Binding Assay
(§1) Cells were grown in T175 flasks to a density of about 1×10^6 cells/mL in growth medium. The cells were harvested by centrifugation (3000 rpm for 30 minutes at 4° C.) and the pellet resuspended in ice cold buffer A (20 mM HEPES pH 7.8, 10 mM EDTA, 100 mM NaCl, 1 tab/40 mL protease inhibitor complete). […] The homogenate was centrifuged at 18000 rpm for 50 min at 4° C. and the membrane protein pellet resuspended in cold buffer A using the Polytron (2×20 seconds). The protein concentration is determined using the Bio Rad Protein Assay and human IgG as standard. The volume of the membrane protein suspension is adjusted to a final concentration of about 2 mg protein/mL. The suspension is then once again homogenized (Polytron) on ice at 25000 rpm for 20 seconds before being aliquoted and stored at −80° C.
(§2) Radio Ligand Binding Assay: Serial dilutions of compounds (stock in 10 mM DMSO) are prepared by first diluting the compounds in DMSO followed by a 1:50 dilution into assay buffer (10 mM HEPES, pH 8.0, 100 mM NaCl, 5 mM MgCl2, 1 mM CaCl2, 0.5% fatty acid-free BSA, 0.05% Tween-20). […] The desired amount of membranes (20 μg/well) is diluted with assay buffer. […] 100 μL of the membrane-suspension is added and the plate stirred for 60 minutes. […] The filter plate is washed 5 times with ice-cold wash buffer, dried and sealed at the bottom. Then 20 μL of Microscint 40 is added into each well and the top of the plate is sealed. Finally the plate is counted for 2 min/well in a TopCount NXT instrument (Packard Instruments). The data are analyzed using the GraphPad Prism™ software.

human GPR4 [2] = target: T1, human GPR4; test: Human GPR4 binding assay with additional human serum albumin (4% HSA); conditions: binding assay with 4% HSA
Method: as §1, §2
In a similar manner, a binding assay with additional human serum albumin (4% HSA) has been established.

human GPR4 [3] = target: T1, human GPR4; test: Cell-based assay for human GPR4 activity (pH-induced cAMP formation, HTRF, HeLa cells); conditions: HeLa cells stably expressing human GPR4, pH-induced cAMP
Method: b) Cell-Based Assay for Human GPR4 Activity
(§3) HeLa cells stably expressing human GPR4 were established by transfecting the cells with a construct containing the human GPR4 coding sequence. The cells were grown in Dulbecco's Modified Eagle Medium (DMEM)/HAM's tissue culture medium F12 (HAM's F12) supplemented with 10% fetal calf serum (FCS), 100 u/ml penicillin, 100 μg/ml streptomycin and 400 μg/ml G418 and 10 mM Hepes pH 8.0. pH-induced formation of cAMP was determined using the homogeneous time resolved fluorescence (HTRF) technology as provided by CisBio Inc. The cells were seeded in 384-well plates and cultured for 24 hours at 37° C., 5% CO2 before performing the assay. Medium was removed and 10 μl buffer A (Hepes buffered saline (HBS), 10 mM Hepes, pH 8, 2 mM 3-Isobutyl-1-methylxanthin (IBMX)) was added. For compound testing, buffer A with 2× concentrated compounds was used. Cells were incubated for 15 min at room temperature. 10 μl buffer B (HBS, 30 mM Hepes, specific pH) was added to reach the appropriate final pH for stimulation (see below) and incubation was continued for 15 min at room temperature. […] HBS: 130 mM NaCl, 0.9 mM NaH2 PO4, 5.4 mM KCl, 0.8 mM MgSO4, CaCl2 1.8 mM, 25 mM glucose, 10-30 mM Hepes. Adjustment of HBS buffers:
(§4) Compounds were diluted from fresh stock solutions at 10 mM in DMSO to 2 mM and then used for serial dilutions in DMSO.

mouse GPR4 = mouse GPR4 (Mus musculus (Mouse), UniProt Q8BUD0); test: Mouse GPR4 cAMP assay; type: cell-based
Chain of mouse GPR4 (Q8BUD0 whole entry): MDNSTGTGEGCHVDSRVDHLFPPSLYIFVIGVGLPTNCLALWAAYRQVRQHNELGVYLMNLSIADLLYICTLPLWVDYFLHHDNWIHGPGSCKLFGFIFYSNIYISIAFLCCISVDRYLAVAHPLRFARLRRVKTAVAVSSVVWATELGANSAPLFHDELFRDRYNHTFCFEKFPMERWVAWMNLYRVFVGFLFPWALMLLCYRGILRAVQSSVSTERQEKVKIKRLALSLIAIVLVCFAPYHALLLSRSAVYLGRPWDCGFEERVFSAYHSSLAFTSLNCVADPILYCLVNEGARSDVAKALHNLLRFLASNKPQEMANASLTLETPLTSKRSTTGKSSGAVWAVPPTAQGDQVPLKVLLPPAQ
Method: as §3, §4
(§5) In a similar manner, assays for the mouse (m) and rat (r) GPR4 receptors have been established.

rat GPR4 = rat GPR4 (Rattus norvegicus (Rat), UniProt Q4KLH9); test: Rat GPR4 cAMP assay; type: cell-based; conditions: read-out: r cAMP IC50
Chain of rat GPR4 (Q4KLH9 whole entry): as the sequence (Q8BUD0 whole entry) above, with G8W, H51R, S339T counted along it
Method: as §3, §4, §5

Human H3 = Human H3 (Homo sapiens (Human), UniProt Q9Y5N1); test: Human H3 binding assay (SPA, [3H]-R-alpha-Methylhistamine); conditions: 3 nM [3H]-R-alpha-Methylhistamine
Chain of Human H3 (Q9Y5N1 whole entry): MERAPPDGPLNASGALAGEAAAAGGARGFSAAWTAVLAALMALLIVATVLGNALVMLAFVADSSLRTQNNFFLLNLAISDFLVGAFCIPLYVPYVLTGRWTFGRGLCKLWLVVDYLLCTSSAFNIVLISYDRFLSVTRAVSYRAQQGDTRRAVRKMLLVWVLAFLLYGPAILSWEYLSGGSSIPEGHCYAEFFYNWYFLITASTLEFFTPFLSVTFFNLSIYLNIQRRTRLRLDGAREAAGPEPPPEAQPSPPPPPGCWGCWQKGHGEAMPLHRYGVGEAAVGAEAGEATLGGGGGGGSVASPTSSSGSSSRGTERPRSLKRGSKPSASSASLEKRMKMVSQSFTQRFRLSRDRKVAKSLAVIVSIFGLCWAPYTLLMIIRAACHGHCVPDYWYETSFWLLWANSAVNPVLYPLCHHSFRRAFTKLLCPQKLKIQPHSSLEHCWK
Method: c) Human H3 Binding Assay
The Scintillation Proximity Binding Assay (SPA) assay was performed in a final volume of 50 μL per well in a 384-well polystyrene plate.
The final concentration of the radioligand was 3 nM. • 20 μL of a beads (PVT-WGA type A) and membranes mixed suspension in assay buffer, in order to get a final concentration of 10 μg/well of membranes and 200 μg/well of beads. As an example, 1471 μL membranes (Conc.: 5.1 mg/mL) and 1500 μL of bead suspension (Conc.: 100 mg/mL) are diluted to a final volume of 15 mL of assay buffer.
The plates were sealed and shaken at room temperature, then allowed to stand at room temperature for at least 1 hour. The plates were counted using a Perkin Elmer TopCount reader, each well being counted for 1 minute.

[4] = test system: antigen-induced arthritis (knee swelling); test: Rat antigen-induced arthritis model; type: in vivo; conditions: oral gavage, AUC of R/L knee swelling ratio vs control
Method: e) GPR4 Activity in Rat Antigen-induced Arthritis Model Female Lewis rats were sensitised intradermally on the back at two sites to methylated bovine serum albumin (mBSA) homogenised 1:1 with complete Freund's adjuvant on days −21 and −14 (0.1 ml containing 1 mg/ml mBSA). On day 0, the right knee received […] of 10 mg/ml mBSA in 5% glucose solution (antigen injected knee), while the left knee received […] of 5% glucose solution alone (vehicle injected knee). The diameters of the left and right knees were then measured using calipers immediately after the intra-articular injections and again on days 2, 4 and 7. The compounds of the invention were administered twice daily by oral gavage; vehicle (saline) at 5 ml/kg, and dexamethasone at 0.3 mg/kg was given as a control. Right knee swelling was calculated as a ratio of left knee swelling, and the R/L knee swelling ratio plotted against time to give Area Under the Curve (AUC) graphs for control and treatment groups. The percentage inhibition of the individual treatment group AUCs were calculated vs the control group AUC (0% inhibition).

[5] = radioligand [3H]4 (example 39), membranes of 300.19 cells expressing human GPR4

T1 sequence (P46093 whole entry): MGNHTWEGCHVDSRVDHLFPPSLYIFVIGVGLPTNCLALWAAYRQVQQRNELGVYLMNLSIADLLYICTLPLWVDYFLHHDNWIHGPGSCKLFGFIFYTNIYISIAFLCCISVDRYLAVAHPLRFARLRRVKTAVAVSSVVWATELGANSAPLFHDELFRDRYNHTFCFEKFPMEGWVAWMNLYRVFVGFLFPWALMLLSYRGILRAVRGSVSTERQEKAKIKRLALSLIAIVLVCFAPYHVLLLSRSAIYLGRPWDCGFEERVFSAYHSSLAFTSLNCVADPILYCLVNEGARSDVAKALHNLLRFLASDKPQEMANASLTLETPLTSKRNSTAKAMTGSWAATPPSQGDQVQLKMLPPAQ

| IC50 (human GPR4 [2]) | IC50 (human GPR4 [3]) | IC50 (mouse GPR4) | IC50 (rat GPR4) | IC50 (Human H3) | IC50 (human GPR4 [1]; [5]) | SMILES | IC50 (human GPR4 [1]) | Inhibition of swelling ([4]; 30 mg/kg bid) | Inhibition of swelling ([4]; 60 mg/kg bid) |
| --- | --- | --- | --- | --- | --- | --- | --- | --- | --- |
| 44 nM | 56 nM | 216 nM | 634 nM | 26000 nM | 51 nM | CCc1nn2c(C)cc(C)nc2c1Cc1ccc(/C=C/CN2CCN(C(=O)[C@H](CO)NC)CC2)cc1 [Example 15, (S)-1-(4-{(E)-3-[4-(2-Ethyl-5,7-dimethyl-pyrazolo[1,5-a]pyrimidin-3-ylmethyl)-phenyl]-allyl}-piperazin-1-yl)-3-hydroxy-2-methylamino-propan-1-one] | – | – | – |
| 63 nM | 52 nM | 635 nM | 2090 nM | > 30000 nM | 110 nM | CCc1nn2c(C)cc(C)nc2c1Cc1ccc(OCCC2(O)CCNCC2)cc1 [Example 25, 4-{2-[4-(2-Ethyl-5,7-dimethyl-pyrazolo[1,5-a]pyrimidin-3-ylmethyl)-phenoxy]-ethyl}-piperidin-4-ol] | – | – | – |
| 17 nM | 51 nM | 284 nM | 2290 nM | > 30000 nM | 5 nM | CCc1nn2c(C)cc(C)nc2c1Cc1ccc(-c2nnc([C@H]3CC[C@H](N)CC3)o2)cc1 [Example 36, 4-{5-[4-(2-Ethyl-5,7-dimethyl-pyrazolo[1,5-a]pyrimidin-3-ylmethyl)-phenyl]-[1,3,4]oxadiazol-2-yl}-cyclohexylamine] | – | – | – |
| 61 nM | 53 nM | 511 nM | 1330 nM | > 30000 nM | 43 nM | CCc1nn2c(C)cc(C)nc2c1Cc1ccc(-n2cc(CN3CCNCC3)cn2)cc1 [Example 31, 2-Ethyl-5,7-dimethyl-3-[4-(4-piperazin-1-ylmethyl-pyrazol-1-yl)-benzyl]-pyrazolo[1,5-a]pyrimidine] | – | 24% | 38% |
| 19 nM | 21 nM | 262 nM | 1410 nM | > 30000 nM | – | CCc1nn2c(C)cc(C)nc2c1Cc1ccc(OC[C@H]2CC[C@@H](N)CC2)cc1 [Example 23, 4-[4-(2-Ethyl-5,7-dimethyl-pyrazolo[1,5-a]pyrimidin-3-ylmethyl)-phenoxymethyl]-cyclohexylamine] | – | 24% | – |

| SMILES | IC50 (human GPR4 [2]) | IC50 (human GPR4 [3]) | IC50 (mouse GPR4) | IC50 (rat GPR4) | IC50 (Human H3) | IC50 (human GPR4 [1]; [5]) | IC50 (human GPR4 [1]) | Inhibition of swelling ([4]; 30 mg/kg bid) | Inhibition of swelling ([4]; 60 mg/kg bid) |
| --- | --- | --- | --- | --- | --- | --- | --- | --- | --- |
| CCc1nn2c(C)cc(C)nc2c1Cc1ccc(-n2cc(CC3(O)CCNCC3)nn2)cc1 [Example 34, 4-{1-[4-(2-Ethyl-5,7-dimethyl-pyrazolo[1,5-a]pyrimidin-3-ylmethyl)-phenyl]-1H-[1,2,3]triazol-4-ylmethyl}-piperidin-4-ol] | 78 nM | 58 nM | 534 nM | 1230 nM | > 30000 nM | – | 77 nM | – | – |
